Counter-ions that a name gives are not always drawn.
Molecular target: T1, epithelial sodium channel (ENaC) (Homo sapiens, UniProt P37088+P51168+P51170)
T1 construct: host or cells: primary Human Bronchial Epithelial cells (HBECs), air-liquid interface culture
T1 sequence (P37088 1-669): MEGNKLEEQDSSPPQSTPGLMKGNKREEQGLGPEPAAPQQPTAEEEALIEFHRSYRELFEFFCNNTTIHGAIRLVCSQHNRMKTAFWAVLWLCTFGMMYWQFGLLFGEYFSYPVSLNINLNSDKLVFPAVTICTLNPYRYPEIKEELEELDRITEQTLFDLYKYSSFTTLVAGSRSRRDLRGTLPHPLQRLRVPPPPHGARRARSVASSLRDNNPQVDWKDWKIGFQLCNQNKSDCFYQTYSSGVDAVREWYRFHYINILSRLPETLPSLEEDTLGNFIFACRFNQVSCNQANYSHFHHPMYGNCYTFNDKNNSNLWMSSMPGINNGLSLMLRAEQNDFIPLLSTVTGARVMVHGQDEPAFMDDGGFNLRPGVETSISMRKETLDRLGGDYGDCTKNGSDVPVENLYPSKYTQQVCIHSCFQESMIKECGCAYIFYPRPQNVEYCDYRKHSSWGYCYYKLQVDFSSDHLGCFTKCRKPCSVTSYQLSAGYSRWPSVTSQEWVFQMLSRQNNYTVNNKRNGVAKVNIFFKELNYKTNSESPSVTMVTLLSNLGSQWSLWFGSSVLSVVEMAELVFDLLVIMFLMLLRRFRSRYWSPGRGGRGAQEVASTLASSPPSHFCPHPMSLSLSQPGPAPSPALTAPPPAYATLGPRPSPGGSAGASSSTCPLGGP
T1 sequence (P51168 1-640): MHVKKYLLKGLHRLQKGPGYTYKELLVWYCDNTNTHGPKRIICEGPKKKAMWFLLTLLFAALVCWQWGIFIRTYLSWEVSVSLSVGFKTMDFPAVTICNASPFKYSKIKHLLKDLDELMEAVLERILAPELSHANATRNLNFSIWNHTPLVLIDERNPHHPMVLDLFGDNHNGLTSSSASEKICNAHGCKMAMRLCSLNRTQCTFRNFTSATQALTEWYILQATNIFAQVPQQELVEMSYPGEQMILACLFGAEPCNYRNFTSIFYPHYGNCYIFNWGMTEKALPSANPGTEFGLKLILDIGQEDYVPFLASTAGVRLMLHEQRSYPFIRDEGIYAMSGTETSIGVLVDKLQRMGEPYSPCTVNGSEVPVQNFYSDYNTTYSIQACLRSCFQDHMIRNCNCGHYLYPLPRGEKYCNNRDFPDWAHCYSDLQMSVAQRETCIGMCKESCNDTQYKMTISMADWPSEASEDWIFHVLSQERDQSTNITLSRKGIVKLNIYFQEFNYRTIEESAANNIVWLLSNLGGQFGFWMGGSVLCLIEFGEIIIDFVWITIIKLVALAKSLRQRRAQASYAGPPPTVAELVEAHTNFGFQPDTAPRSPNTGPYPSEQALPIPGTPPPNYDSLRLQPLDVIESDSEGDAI
T1 sequence (P51170 1-649): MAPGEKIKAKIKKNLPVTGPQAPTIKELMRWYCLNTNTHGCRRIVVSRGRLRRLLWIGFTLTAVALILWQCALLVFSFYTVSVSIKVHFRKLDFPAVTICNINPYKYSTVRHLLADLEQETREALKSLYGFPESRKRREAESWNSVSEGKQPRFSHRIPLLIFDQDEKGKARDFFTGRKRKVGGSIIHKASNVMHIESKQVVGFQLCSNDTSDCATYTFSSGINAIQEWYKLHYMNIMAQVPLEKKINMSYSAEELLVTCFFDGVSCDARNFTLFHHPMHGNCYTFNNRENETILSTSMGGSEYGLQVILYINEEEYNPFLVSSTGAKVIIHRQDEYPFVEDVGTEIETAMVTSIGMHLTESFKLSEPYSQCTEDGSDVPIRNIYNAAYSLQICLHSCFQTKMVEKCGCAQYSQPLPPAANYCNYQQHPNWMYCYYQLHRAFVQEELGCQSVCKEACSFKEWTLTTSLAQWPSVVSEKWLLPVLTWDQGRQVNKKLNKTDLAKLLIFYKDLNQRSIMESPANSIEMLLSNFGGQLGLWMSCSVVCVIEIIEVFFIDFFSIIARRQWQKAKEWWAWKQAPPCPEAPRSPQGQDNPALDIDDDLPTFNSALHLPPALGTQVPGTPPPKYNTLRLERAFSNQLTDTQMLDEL
Assay: Short circuit current (ISC) measurements in Human Bronchial Epithelial cells, inhibition of amiloride-sensitive ISC
Assay type: cell-based
Conditions: inhibition of the amiloride-sensitive ISC; Human Bronchial Epithelial cells (HBECs) at air-liquid interface; compound added to apical chamber; read-out: IC50
Procedure: Compounds of formula (I) and their pharmaceutically acceptable salts, hereinafter referred to alternatively as “agents of the invention”, are useful as pharmaceuticals. In particular, the compounds have good ENaC blocker activity and may be tested in the following assays.
Human Bronchial Epithelial cells (HBECs) (Cambrex) were cultured under air-liquid interface conditions to provide a well differentiated mucociliary phenotype.
HBECs were cultured using a modification of the method described by Gray and colleagues (Gray et al., 1996). Cells were seeded in plastic T-162 flasks and were grown in bronchial epithelial cell growth medium (BEGM; Cambrex) supplemented with bovine pituitary extract (52 μg/mL), hydrocortisone (0.5 μg/mL), human recombinant epidermal growth factor (0.5 ng/mL), epinephrine (0.5 μg/mL), transferrin (10 μg/mL), insulin (5 μg/mL), retinoic acid (0.1 μg/mL), triiodothyronine ([…]), gentamycin (50 μg/mL) and amphotericin B (50 ng/mL). Medium was changed every 48 hours until cells were 90% confluent. Cells were then passaged and seeded (8.25×10^5 cells/insert) on polycarbonate Snapwell inserts (Costar) in differentiation media containing 50% DMEM in BEGM with the same supplements as above but without triiodothyronine and a final retinoic acid concentration of 50 nM (all-trans retinoic acid). Cells were maintained submerged for the first 7 days in culture, after which time they were exposed to an apical air interface for the remainder of the culture period. At this time, media was changed to DMEM:F12 media containing 2% v/v Ultroser G for the remainder of culture. Amphotericin B was removed from all media 3 feeds prior to use in the Using Chambers. Cells were used between days 7 and 21 after establishment of the apical-air interface. At all stages of culture, cells were maintained at 37° C. in 5% CO2 in an air incubator.
Short Circuit Current (ISC) Measurements
Snapwell inserts were mounted in Vertical Diffusion Chambers (Costar) and were bathed with continuously gassed Ringer solution (5% CO2 in O2; pH 7.4) maintained at 37° C. containing (in mM): 120 NaCl, 25 NaHCO3, 3.3 KH2PO4, 0.8 K2HPO4, 1.2 CaCl2, 1.2 MgCl2, and 10 glucose. The solution osmolarity was between 280 and 300 mOsmol/kg H2O for all physiological salt solutions used. Cells were voltage clamped to 0 mV (model EVC4000; WPI). RT was measured by applying a 1- or 2-mV pulse at 30-s intervals and calculating RT by Ohm's law. Data were recorded using a PowerLab workstation (ADInstruments).
Test compounds were prepared as a 10 mM stock solution in DMSO (95%). Serial 3-fold dilutions were freshly prepared in an appropriate vehicle (distilled H2O or Ringers solution). The initial concentration was added to the apical chamber as a 1000× concentrate in 5 μL, resulting in a final 1× concentration the 5 mL volume of the Ussing chamber. Subsequent additions of compound were added in a 3.3 μL volume of the 1000× serially diluted stock solution. At the completion of the concentration-response experiment, amiloride (10 μM) was added into the apical chamber to enable the total amiloride-sensitive current to be measured. An amiloride control IC50 was established at the start of each experiment.
Results are expressed as the mean % inhibition of the amiloride-sensitive ISC. Concentration-response curves were plotted and IC50 values generated using GraphPad Prism 3.02. Cell inserts were typically run in duplicate and the IC50 calculated on the mean % inhibition data.

Row | SMILES | IC50 [nM]
1 | Nc1nc(N)c(C(=O)/N=C2\NCC3(CCN(C(=O)c4cocn4)CC3)N2)nc1Cl [Example 118, 3,5-Diamino-6-chloro-pyrazine-2-carboxylic acid [8-(oxazole-4-carbonyl)-1,3,8-triaza-spiro[4.5]dec-(2E)-ylidene]-amide] | 175
2 | CC(C)COC1CCN(S(=O)(=O)c2cccc(C(=O)N3CCC4(CC3)CN/C(=N\C(=O)c3nc(Cl)c(N)nc3N)N4)c2)CC1 [Example 126, 3,5-Diamino-6-chloro-pyrazine-2-carboxylic acid [8-[3-(4-isobutoxy-piperidine-1-sulfonyl)-benzoyl]-1,3,8-triaza-spiro[4.5]dec-(2E)-ylidene]-amide] | 25
3 | CCOC(=O)C1CCCN(S(=O)(=O)c2cccc(C(=O)N3CCC4(CC3)CN/C(=N\C(=O)c3nc(Cl)c(N)nc3N)N4)c2)C1 (stereo not shown) [Example 128, 1-(3-{2-[(E)-3,5-Diamino-6-chloro-pyrazine-2-carbonylimino]-1,3,8-triaza-spiro[4.5]decane-8-carbonyl}-benzenesulfonyl)-piperidine-3-carboxylic acid ethyl ester] | 11.5
4 | Nc1nc(N)c(C(=O)/N=C2\NCC3(CCN(C(=O)c4cccc(S(=O)(=O)N5CCC(S(=O)(=O)c6ccccc6)C5)c4)CC3)N2)nc1Cl (stereo not shown) [Example 141, 3,5-Diamino-6-chloro-pyrazine-2-carboxylic acid [8-[3-(3-benzenesulfonyl-pyrrolidine-1-sulfonyl)-benzoyl]-1,3,8-triaza-spiro[4.5]dec-(2E)-ylidene]-amide] | 2
5 | Nc1nc(N)c(C(=O)/N=C2\NCC3(CCN(C(=O)CCc4nc(-c5ccc(Cl)cc5)no4)CC3)N2)nc1Cl [Example 146, 3,5-Diamino-6-chloro-pyrazine-2-carboxylic acid [8-{3-[3-(4-chlorophenyl)-[1,2,4]oxadiazol-5-yl]-propionyl}-1,3,8-triaza-spiro[4.5]dec-(2E)-ylidene-amide trifluoroacetate] | 6
6 | Cc1ccc(S(=O)(=O)n2ccc(C(=O)N3CCC4(CC3)CN/C(=N\C(=O)c3nc(Cl)c(N)nc3N)N4)c2)cc1 [Example 147, 3,5-Diamino-6-chloro-pyrazine-2-carboxylic acid [8-[1-(toluene-4-sulfonyl)-1H-pyrrole-3-carbonyl]-1,3,8-triaza-spiro[4.5]dec-(2E)-ylidene]-amide] | 16
7 | CC(=O)N[C@@H](Cc1ccc(OC(C)C)cc1)C(=O)N1CCC2(CC1)CN/C(=N\C(=O)c1nc(Cl)c(N)nc1N)N2 [Example 185, 3,5-Diamino-6-chloro-pyrazine-2-carboxylic acid [8-[(S)-2-acetylamino-3-(4-isopropoxy-phenyl)-propionyl]-1,3,8-triaza-spiro[4.5]dec-(2E)-ylidene]-amide] | 62
8 | Nc1nc(N)c(C(=O)/N=C2\NCC3(CCN(C(=O)NCc4ccccc4)CC3)N2)nc1Cl [Example 215, 2-[(E)-3,5-Diamino-6-chloro-pyrazine-2-carbonylimino]-1,3,8-triaza-spiro[4.5]decane-8-carboxylic acid benzylamide] | 36
9 | Nc1nc(N)c(C(=O)/N=C2\NCC3(CCN(C(=O)NCCc4cccc(OCc5ccccc5)c4)CC3)N2)nc1Cl [Example 220, 2-[(E)-3,5-Diamino-6-chloro-pyrazine-2-carbonylimino]-1,3,8-triaza-spiro[4.5]decane-8-carboxylic acid [2-(3-benzyloxy-phenyl)-ethyl]-amide] | 8.5

Now from value to compound:

Row | IC50 [nM] | SMILES
10 | 93.5 | Nc1nc(N)c(C(=O)/N=C2\NCC3(CCN(C(=O)NCCCc4ccccn4)CC3)N2)nc1Cl [Example 228, 2-[(E)-3,5-Diamino-6-chloro-pyrazine-2-carbonylimino]-1,3,8-triaza-spiro[4.5]decane-8-carboxylic acid (3-pyridin-2-yl-propyl)-amide]
11 | 54 | Nc1nc(N)c(C(=O)/N=C2\NCC3(CCN(S(=O)(=O)Cc4ccccc4)CC3)N2)nc1Cl [Example 232, 3,5-Diamino-6-chloro-pyrazine-2-carboxylic acid [8-phenylmethanesulfonyl-1,3,8-triaza-spiro[4.5]dec-(2E)-ylidene]-amide]
12 | 364 | Cn1ccc2cc(S(=O)(=O)N3CCC4(CC3)CN/C(=N\C(=O)c3nc(Cl)c(N)nc3N)N4)ccc21 [Example 235, 3,5-Diamino-6-chloro-pyrazine-2-carboxylic acid [8-(1-methyl-1H-indole-5-sulfonyl)-1,3,8-triaza-spiro[4.5]dec-(2E)-ylidene]-amide]
13 | 119 | Cc1oc(-c2ccccc2)nc1COc1ccc(S(=O)(=O)N2CCC3(CC2)CN/C(=N\C(=O)c2nc(Cl)c(N)nc2N)N3)cc1 [Example 238, 3,5-Diamino-6-chloro-pyrazine-2-carboxylic acid [8-[4-(5-methyl-2-phenyl-oxazol-4-ylmethoxy)-benzenesulfonyl]-1,3,8-triaza-spiro[4.5]dec-(2E)-ylidene]-amide]
